According to article PMC11699130, “Design and synthesis of antiproliferative 2-oxoindolin-3-ylidenes incorporating urea function with potential VEGFR-2 inhibitory properties” (Scientific Reports, 2025):

Tests used:
Type in all cases: cell-based
[1] = test system: HCT116 (colon) carcinoma cell line; assay: MTT antiproliferation assay, HCT116; details: for IC50: Homo sapiens, HCT-116, MTT, 72 h incubation, HCT116 (colon), read-out: IC50, μM ± SD, HCT116; for SI (safety/selectivity index), HCT116: in brackets after IC50, normal RPE1 relative to HCT116
Text: (§1) Antiproliferation properties against normal RPE1 (human immortalized retinal pigment epithelial) cell line were also considered for safety/selectivity index (SI) determination of each respective agent synthesized (Table 1, Supplementary Figs. S61–S64). […]
(§2) All the biological studies conducted obey the standards and approved by the Research Ethics Committee, National Research Centre, Egypt (associated with project ID:
(§3) Antiproliferation properties
(§4) The synthesized compounds 12a‒j were screened for their antiproliferation properties against HCT116 (colon), MCF7 (breast) and PaCa2 (pancreatic) cancer cell lines by the standard mitochondrial dependent reduction of yellow MTT [3 -(4,5-dimethylthiazol-2- […]
(§5) considered as standard reference/drug. Cells were suspended in DMEM medium for MCF7, PaCa-2 and McCoy’s 5A for HCT116 in addition to 1% antibiotic–antimycotic mixture (10000 μg ml-1 potassium penicillin, 10000 μg ml-1 streptomycin sulfate and 25 μg ml-1 amphotericin B), 10% fetal bovine serum and 1% L-glutamine at 37 °C, under 5% CO2 and 95% humidity. Cells were seeded at concentration of 30000 cells per well in fresh complete growth medium in 96-well tissue culture microtiter plates for 24 h. Media […]
(§6) was aspirated, fresh complete medium was added and cells were incubated with different concentrations of the tested compound to give a final concentration of [50, 25, 12.5 and 6.25 μM “in addition to 3.125, 1.56 and 0.78 μM in case of high potent a nalogs”). 0.5% DMSO was used as a negative control. Triplicate wells were prepared for each individual dose. After 72 h of incubation, medium was aspirated, 40 μl MTT salt (2.5 mg ml -1) was added to each well and incubated for further 4 h at 37 °C. To stop the reaction and dissolve the formed crystals, 150 μl of 10% sodium dodecyl sulfate (SDS) in deionized water was added to each well and incubated overnight at 37 °C. The absorbance was then measured at 570 nm and a reference wavelength of 595 nm.
(§7) Data were collected as mean values for experiments performed in triplicates for each individual dose which had been measured by MTT assay. Control experiments did […]
(§8) The cell surviving fraction was calculated according to the following equation.
(§9) Surviving fraction = Opticaldensity(O.D.)oftreatedcells
(§10) The agents synthesized were also tested against RPE1 (normal human immortalized retinal pigment epithelial cell line) cell (in DMEM -F12 medium) to determine the toxicity/selectivity towards normal cells relative to the cancer cell lines […]
(§11) The IC50 (concentration required to produce 50% inhibition of cell growth compared to the control experiment) was determined using Graph-Pad PRISM version-5 software. Statistical calculations for determination of the mean and standard division (SD) values were determined by SPSS 16 so ftware. The observed anti-proliferative properties are presented in Table 1 ( Supplementary Figs. S61‒S64). […]

[2] = test system: MCF7 (breast) carcinoma cell line; assay: MTT antiproliferation assay, MCF7; details: for IC50: Homo sapiens, MTT, 72 h incubation, MCF7 (breast), read-out: IC50, μM ± SD, MCF7; for SI (safety/selectivity index), MCF7: in brackets after IC50, normal RPE1 relative to MCF7
Text: as §1, §2, §3, §4, §5, §6, §7, §8, §9, §10, §11

[3] = test system: PaCa2 (pancreatic) carcinoma cell line; assay: MTT antiproliferation assay, PaCa2; details: for IC50: PaCa-2, MTT, 72 h incubation, PaCa2 (pancreatic), read-out: IC50, μM ± SD, PaCa2; for SI (safety/selectivity index), PaCa2: in brackets after IC50, normal RPE1 relative to PaCa2
Text: as §1, §2, §3, §4, §5, §6, §7, §8, §9, §10, §11

[4] = test system: RPE1 (human immortalized retinal pigment epithelial) cell line; assay: MTT assay on normal cells for safety/selectivity; details: RPE-1, read-out: IC50, μM ± SD, RPE1
Experimental: as §1, §6, §7, §8, §9, §10, §11

VEGFR-2 = target: T1, VEGFR-2 (Homo sapiens, UniProt P35968); assay: VEGFR-2 inhibitory properties by western blotting; details: for Relative quantification (RQ): VEGFR-2 western blot band, normalised to beta actin, at 10 μM, control RQ 3.290; for inhibition at 10 µM: western blotting, read-out: % Inhibition against VEGFR-2
T1 construct: lysed cells; endogenous in cells
T1 sequence (P35968 20-1356): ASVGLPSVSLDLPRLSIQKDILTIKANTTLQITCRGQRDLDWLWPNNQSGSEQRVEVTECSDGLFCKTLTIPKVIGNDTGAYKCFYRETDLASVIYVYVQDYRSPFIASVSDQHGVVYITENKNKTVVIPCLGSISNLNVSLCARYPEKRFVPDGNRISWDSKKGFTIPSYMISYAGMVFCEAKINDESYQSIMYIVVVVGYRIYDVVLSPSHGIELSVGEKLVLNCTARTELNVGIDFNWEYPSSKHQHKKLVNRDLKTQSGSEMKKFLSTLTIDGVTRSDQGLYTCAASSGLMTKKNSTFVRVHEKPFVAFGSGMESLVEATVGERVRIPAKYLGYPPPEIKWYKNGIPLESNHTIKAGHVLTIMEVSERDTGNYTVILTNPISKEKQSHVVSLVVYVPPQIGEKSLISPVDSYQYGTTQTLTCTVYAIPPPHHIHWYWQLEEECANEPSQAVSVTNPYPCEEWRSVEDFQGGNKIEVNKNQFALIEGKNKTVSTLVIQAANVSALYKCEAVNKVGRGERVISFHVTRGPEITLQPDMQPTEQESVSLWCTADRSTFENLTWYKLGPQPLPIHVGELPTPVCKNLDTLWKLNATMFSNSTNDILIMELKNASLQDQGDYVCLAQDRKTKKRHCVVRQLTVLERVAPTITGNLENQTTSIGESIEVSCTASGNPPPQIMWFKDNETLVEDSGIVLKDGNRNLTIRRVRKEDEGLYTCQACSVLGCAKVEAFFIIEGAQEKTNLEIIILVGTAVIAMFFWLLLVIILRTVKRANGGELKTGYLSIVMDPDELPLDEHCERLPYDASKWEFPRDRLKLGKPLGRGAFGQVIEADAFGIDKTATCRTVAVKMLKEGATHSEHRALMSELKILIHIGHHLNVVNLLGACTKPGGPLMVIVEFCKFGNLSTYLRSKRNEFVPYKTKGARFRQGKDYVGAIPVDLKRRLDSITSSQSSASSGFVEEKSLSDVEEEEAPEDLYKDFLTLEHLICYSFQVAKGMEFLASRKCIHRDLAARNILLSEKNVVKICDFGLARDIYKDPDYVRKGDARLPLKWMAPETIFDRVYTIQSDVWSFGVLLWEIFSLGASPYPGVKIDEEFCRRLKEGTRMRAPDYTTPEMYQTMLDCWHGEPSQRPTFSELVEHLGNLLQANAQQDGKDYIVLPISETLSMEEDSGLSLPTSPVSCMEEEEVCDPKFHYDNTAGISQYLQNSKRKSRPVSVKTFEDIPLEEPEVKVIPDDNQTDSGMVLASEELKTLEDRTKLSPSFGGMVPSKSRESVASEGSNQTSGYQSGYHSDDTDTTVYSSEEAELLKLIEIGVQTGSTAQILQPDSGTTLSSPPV
Experimental: VEGFR-2 inhibitory properties […]
standard/drug) was determined at 10 μM by the western blotting technique obeying the manufacturer’s instruction (Santa Cruz Biotechnology, Inc .).5
Protein extraction procedure
The ReadyPrepTM protein extraction kit (total protein) provided by Bio-Rad Inc.
(Catalog #163-2086) employed by the manufacturer, was added to each sample of the lysed cells. Bradford Protein Assay Kit (SK3041) for quantitative protein analysis was provided by Bio-basic Inc. (Markham Ontario L3R 8T4 Canada). A Bradford assay was performed according to manufacturer’s instructions to determine protein concentration in each sample. 20 μg protein concentration of each sample was then loaded with an equal volume of 2x Laemmli sample buffer containing 4% SDS, 10% 2-mercaptoehtanol, 20% glycerol, 0.004% bromophenol blue and 0.125 M Tris HCl. The pH was checked and brought to 6.8. Each previous mixture was boiled at 95°C for 5 min to ensure denaturation of protein before loading on polyacrylamide gel electrophoresis.
Protein separation by electrophoresis
Samples were separated on a polyacrylamide gel; the procedure was abbreviated as SDS-PAGE form Sodium Dodecyl Sulfate PolyAcrylamide Gel Electrophoresis, which is a standard technique for separating proteins according to their molecular weight.
Polyacrylamide gels were performed using TGX Stain-Free™ FastCast™ Acrylamide Kit (SDS-PAGE), which was provided by Bio-Rad Laboratories inc Cat # 161-0181. The SDS-PAGE TGX Stain-Free FastCast was prepared according to manufacturer’s […]
Protein blotting (transfer of proteins from the gel to the membrane)
The gel was assembled in transfer sandwich from below to above (filter paper, PVDF membrane, gel and filter paper). The sandwich was placed in the transfer tank with 1x transfer buffer, which is composed of 25 mM Tris and 190 mM glycine and 20% methanol. Then, the blot was run for 7 min . at 25 V to allow protein bands transfer from gel to membrane using BioRad Trans-Blot Turbo.
The membrane was blocked in tris -buffered saline with Tween 20 (TBST) buffer and 3% bovine serum albumin (BSA) at room temperature for 1 hr. The components of blocking […]
buffer were as follow; 20 mM Tris pH 7.5, 150 mM NaCl, 0.1% Tween 20 and 3% bovine serum albumin (BSA).
Incubation with the primary antibody
Primary antibody of VEGFR2 was purchased. Primary antibody was diluted in TBST according to manufactured instructions.

Row | SMILES | IC50 [1] [µM] | IC50 [2] [µM] | IC50 [3] [µM] | Relative quantification (RQ) (VEGFR-2) | inhibition at 10 µM (VEGFR-2) [%] | SI (safety/selectivity index), HCT116 [1] | SI (safety/selectivity index), MCF7 [2] | SI (safety/selectivity index), PaCa2 [3] | IC50 [4] [µM] | fold more potent than sunitinib ([3]; PaCa2, ratio of IC50 values)
1 | O=C(Nc1ccccc1)Nc1ccc(C(=O)/C=C2/C(=O)Nc3ccccc32)cc1 [Compound 12b, (E)-1-{4-[2-(2-Oxoindolin-3-ylidene)acetyl]phenyl}-3-phenylurea] | 6.54 ± 0.452 | 2.08 ± 0.126 | 4.09 ± 0.172 | 0.422 | 87.2 | 1.277 | 4.014 | 2.043 | 8.36 ± 0.374 | 
2 | O=C(Nc1ccccc1)Nc1cccc(C(=O)/C=C2/C(=O)Nc3ccc(Cl)cc32)c1 [Compound 12e, (E)-1-{3-[2-(5-Chloro-2-oxoindolin-3-ylidene)acetyl]phenyl}-3-phenylurea] | 11.9 ± 2.53 | 3.91 ± 0.78 | 7 ± 1.11 | 0.538 | 83.6 | 1.229 | 3.738 | 2.087 | 14.6 ± 0.316 | 
3 | O=C(Nc1ccccc1)Nc1ccc(C(=O)/C=C2/C(=O)Nc3ccc(Br)cc32)cc1 [Compound 12g, (E)-1-{4-[2-(5-Bromo-2-oxoindolin-3-ylidene)acetyl]phenyl}-3-phenylurea] | 6.29 ± 0.912 | 4.41 ± 0.544 | 5.32 ± 0.228 | 0.500 | 84.8 | 2.173 | 3.101 | 2.572 | 13.7 ± 0.85 | 
4 | COc1ccc2c(c1)/C(=C\C(=O)c1ccc(NC(=O)Nc3ccccc3)cc1)C(=O)N2 [Compound 12j, (E)-1-{4-[2-(5-Methoxy-2-oxoindolin-3-ylidene)acetyl]phenyl}-3-phenylurea] | 6.15 ± 0.539 | 1.69 ± 0.067 | 4.49 ± 0.785 | 0.678 | 79.4 | 1.400 | 5.090 | 1.917 | 8.6 ± 0.334 | 
5 | CCN(CC)CCNC(=O)c1c(C)[nH]c(/C=C2\C(=O)Nc3ccc(F)cc32)c1C [Sunitinib, reference compound] | 9.57 ± 0.949 | 11.8 ± 0.937 | 13.34 ± 0.091 |  |  |  |  |  |  | 

The next lines start with results.

Row | IC50 [1] [µM] | IC50 [2] [µM] | IC50 [3] [µM] | Relative quantification (RQ) (VEGFR-2) | inhibition at 10 µM (VEGFR-2) [%] | SMILES | SI (safety/selectivity index), HCT116 [1] | SI (safety/selectivity index), MCF7 [2] | SI (safety/selectivity index), PaCa2 [3] | IC50 [4] [µM] | fold more potent than sunitinib ([3]; PaCa2, ratio of IC50 values)
6 | 13.3 ± 1.35 | 3.13 ± 0.395 | 5.24 ± 0.502 | 0.746 | 77.3 | O=C(Nc1ccccc1)Nc1cccc(C(=O)/C=C2/C(=O)Nc3ccccc32)c1 [Compound 12a, (E)-1-{3-[2-(2-Oxoindolin-3-ylidene)acetyl]phenyl}-3-phenylurea] | 1.022 | 4.355 | 2.606 | 13.6 ± 0.659 | 
7 | 14.4 ± 1.47 | 5.81 ± 0.629 | 6.8 ± 0.514 | 0.472 | 85.6 | O=C(Nc1ccccc1)Nc1cccc(C(=O)/C=C2/C(=O)Nc3ccc(F)cc32)c1 [Compound 12c, (E)-1-{3-[2-(5-Fluoro-2-oxoindolin-3-ylidene)acetyl]phenyl}-3-phenylurea] | 1.483 | 3.669 | 3.133 | 21.31 ± 0.026 | 
8 | 5.78 ± 0.593 | 2.9 ± 0.3 | 4.96 ± 0.201 | 0.491 | 85.1 | O=C(Nc1ccccc1)Nc1ccc(C(=O)/C=C2/C(=O)Nc3ccc(F)cc32)cc1 [Compound 12d, (E)-1-{4-[2-(5-Fluoro-2-oxoindolin-3-ylidene)acetyl]phenyl}-3-phenylurea] | 1.898 | 3.779 | 2.214 | 11 ± 0.429 | 
9 | 6.58 ± 0.923 | 3.41 ± 0.761 | 5.81 ± 0.63 | 0.517 | 84.3 | O=C(Nc1ccccc1)Nc1ccc(C(=O)/C=C2/C(=O)Nc3ccc(Cl)cc32)cc1 [Compound 12f, (E)-1-{4-[2-(5-Chloro-2-oxoindolin-3-ylidene)acetyl]phenyl}-3-phenylurea] | 1.630 | 3.144 | 1.845 | 10.7 ± 0.766 | 
10 | 5.58 ± 0.636 | 2.07 ± 0.081 | 4 ± 0.369 | 0.475 | 85.6 | Cc1ccc2c(c1)/C(=C\C(=O)c1ccc(NC(=O)Nc3ccccc3)cc1)C(=O)N2 [Compound 12h, (E)-1-{4-[2-(5-Methyl-2-oxoindolin-3-ylidene)acetyl]phenyl}-3-phenylurea] | 1.523 | 4.107 | 2.128 | 8.5 ± 0.466 | about 3.34 fold
11 | 27.2 ± 2.95 | 8.96 ± 0.767 | 7.64 ± 0.08 | 0.634 | 80.7 | COc1ccc2c(c1)/C(=C\C(=O)c1cccc(NC(=O)Nc3ccccc3)c1)C(=O)N2 [Compound 12i, (E)-1-{3-[2-(5-Methoxy-2-oxoindolin-3-ylidene)acetyl]phenyl}-3-phenylurea] | 1.111 | 3.370 | 3.952 | 30.2 ± 0.948 | 
